Assay results: patent US10455835B2, “Fungicidal compositions for controlling leaf spots in sugar beets” (Dow AgroSciences LLC, priority 2012, dated 2019)

Test system: Cercospora beticola (CERCBE)
Experiment: Activity vs. sugar beet leaf spot on inoculated sugar beet plants (disease severity)
Type: in vivo
Settings: sugar beet 'HH88', factorial analysis across all rates and replicates
Procedure: Evaluation of Protectant Activity of Fungicide Mixtures vs. sugar beet leaf spot caused by Cercospora beticola (CERCBE). Sugar beet plants (variety ‘HH88’) were grown in soil-less Metro mix and trimmed regularly to maintain an uniform plant size prior to test. To prepare inoculum, dried diseased beet leaves were placed in a moist chamber overnight to promote sporulation. Spores were rinsed off leaves with distilled water, filtered through cheesecloth to remove plant debris, then adjusted to 4×10^4 spores/ml. Tween 20 was added at 3 drops per 100 ml. Sugar beet seedlings were inoculated 3 days prior to or 4 to 5 days after fungicide treatments. Inoculated plants were kept in a dew chamber at 22° C. for 48 hr then incubated in a greenhouse set at 24° C. under a clear plastic hood until disease symptoms were fully expressed. Disease severity was assessed on both treated and untreated plants.
The following fungicides were used for an efficacy example:
The efficacy of various formulations is shown in the table below wherein the values are percent disease severity. Results of the factorial analysis across all rates and replicates.

CC1COC(Cn2cncn2)(c2ccc(Oc3ccc(Cl)cc3)cc2Cl)O1 (centres unmarked) [difenconazole, 1H-1,2,4-Triazole, 1-((2-(2-chloro-4-(4-chlorophenoxy)phenyl)-4-methyl-1,3-dioxolan-2-yl)methyl)-]
percent disease severity (Ex. 1, 3DC (inoculated 3 days prior to fungicide treatment), untreated disease severity 23.0): 1.2 b percent
percent disease severity (Ex. 2, 5DP (inoculated 5 days after fungicide treatment), untreated disease severity 31.0): 2.2 b percent
percent disease severity (Ex. 3, 3DC (inoculated 3 days prior to fungicide treatment), untreated disease severity 48.0): 0.6 c percent
percent disease severity (Ex. 4, 4DP (inoculated 4 days after fungicide treatment), untreated disease severity 35.0): 2.5 b percent
percent disease severity (Ex. 5, 3DC (inoculated 3 days prior to fungicide treatment), untreated disease severity 26.0): 0.4 c percent
